Earlier results as cited in US11504416B2, “Formulation with cannabinoids” (PAW POWER, INC., priority 2018, dated 2022).

Experiments:
[1] = intra-articular injection, high molecular weight (>5×10^6 Da)

gastrointestinal absorption (administered orally) | time to peak levels in the bloodstream (after oral ingestion) [h] | tissue distribution of ingested glucosamine (oral ingestion) | Compound | function in subjects with osteoarthritis or rheumatoid arthritis [1]
 |  |  | hyaluronic acid | improves function
readily absorbed | ≤ 8 | localizes to cartilage and joint tissues | N[C@H]1C(O)O[C@H](CO)[C@@H](O)[C@@H]1O (stereo partly shown) [Glucosamine] | 
